Assay results taken from patent publication US20250102494A1, “COMPOSITION FOR PREDICTING OXALIPLATIN DRUG EFFICACY, AND USE THEREOF” (SAMSUNG LIFE PUBLIC WELFARE FOUNDATION, priority 2022, published 2025).
Like-named read-outs stand apart in the source and are kept apart here.

Assays:
Type in all cases: cell-based
HCT116 cells = assay: ATPlite cell viability after drug treatment, HCT116 cells in cell-line or organoid culture media; design: AUC 1st / AUC 2nd / AUC 3rd / AUC Average: unit not given here
Description: (§1) Advanced DMEM/F12+++ (hereinafter referred to as “Ad/DF+++”) was used to produce colorectal cancer organoids. Ad/DF+++ was refrigerated at 4° C. until use, and was used in a cold state during cell washing. Ad/DF+++ medium containing the reagents shown in Table 1 below along with Ad/DF 1× (Gibco) was prepared.
(§2) After preparing the Ad/DF+++ medium containing the above reagents, an appropriate amount of Matrigel (Corning #356231) was added so that the ratio between Matrigel and cells suspended in the Ad/DF+++ medium was 7:3. Then, the cells were plated on low attachment well plates at an appropriate density. The density and the type and number of well plates were determined according to the characteristics of each cell type. The medium was prepared according to the composition shown in Table 2 below, and the cells were cultured (expanded) until the required level was reached while the medium was replaced every 3 to 4 days.
If the organoids were expanded as needed for the experiment, the medium was carefully removed, taking care not to touch the Matrigel. The cells were separated from the Matrigel by pipetting about 20 times with 1 ml of cold Ad/DF+++. The cells in 1 to 4 wells per 6-well plate were collected in one 50 ml tube. If cells are collected from more than 4 wells into one tube, the Metrigel may not be washed properly. For this reason, the cells were placed in several tubes. Thereafter, Ad/DF+++ was poured to 20 to 50 ml of each tube, followed by centrifugation at 400 g for 3 minutes at 4° C. The cells were dissociated with 1 to 2 mL of TrypLE™ Express Enzyme (Gibco, 1264-013), transferred to low-attachment 24 well plates, and then treated with 10 μM of Y-27632. Next, the cells were cultured in a CO2 incubator for 5 minutes at 37° C. After pipetting about 20 times, whether the cells would be dissociated into single cells was checked by microscopic observation. If the cells were not dissociated into single cells, the culture under CO2 and pipetting processes were repeated. After the single cells were transferred into 15-ml tubes, Ad/DF+++ was filled to 10 to 15 ml of each tube, followed by centrifugation at 400 g at 4° C. for 3 minutes. After suspending the pellet in Ad/DF+++, the cells were counted and diluted with medium according to the required number of cells.
12 hours after seeding in Experimental Example 1-2 above, the medium was changed with the medium shown in Table 3 below, followed by culturing to produce organoids.
(§3) Four hours after the medium change, the cells were treated with oxaliplatin, 5-FU, Irinotecan, and folinic acid. Five days after drug treatment, intracellular ATP expression was determined using the ATPlite assay kit (PerkinElmer), and the data were expressed in terms of cell viability, IC50, and AUC.
As the standard for confirming that cells are sensitive to the drug, the response of the cells to the drug was assumed to be 100%, and the luminescence value of surviving cells after drug treatment was analyzed and compared with the quantified drug response value.
Based on the assumption that the factor that increases the resistance of the organoids to oxaliplatin is an activator or inhibitor that changes the phenotype, the organoids prepared by excluding some or all of activators and inhibitors as shown in Table 4 below were treated with oxaliplatin.
In order to identify the factors that reduce the resistance to oxaliplatin of the Ex2 organoid, activators or inhibitors that change the phenotype were added one by one to the Ex2 organoid composition, thus producing organoids as shown in Table 8 below. Then, it was checked whether the produced organoids had increased resistance to oxaliplatin.

LoVo cells = assay: ATPlite cell viability after oxaliplatin, LoVo cells in organoid culture media
Description: as §1
as §2, with “The medium was prepared according to the composition shown in Table 2 below, and the cells were cultured (expanded) until the required level was reached while the medium was replaced every 3 to 4 days.” left out
(§4) If the organoids were expanded as needed for the experiment, the medium was carefully removed, taking care not to touch the Matrigel. […] After suspending the pellet in Ad/DF+++, the cells were counted and diluted with medium according to the required number of cells. […]
as §3, with “AUC. […]” for “AUC.”

HCT15 cells = assay: ATPlite cell viability after oxaliplatin, HCT15 cells in organoid culture media
Description: as §1
as §2, with “The medium was prepared according to the composition shown in Table 2 below, and the cells were cultured (expanded) until the required level was reached while the medium was replaced every 3 to 4 days.” left out
as §4
as §3, with “AUC. […]” for “AUC.”

LS147T cells = assay: ATPlite cell viability after oxaliplatin, LS147T cells in organoid culture media
Description: as §1, §2
If the organoids were expanded as needed for the experiment, the medium was carefully removed, taking care not to touch the Matrigel. The cells were separated from the Matrigel by pipetting about 20 times with 1 ml of cold Ad/DF+++. The cells in 1 to 4 wells per 6-well plate were collected in one 50 ml tube. If cells are collected from more than 4 wells into one tube, the Metrigel may not be washed properly. For this reason, the cells were placed in several tubes. […] After suspending the pellet in Ad/DF+++, the cells were counted and diluted with medium according to the required number of cells. […]
as §3
As the standard for confirming that cells are sensitive to the drug, the response of the cells to the drug was assumed to be 100%, and the luminescence value of surviving cells after drug treatment was analyzed and compared with the quantified drug response value. […]

Compound: O=C1[O][Pt]2([NH][C@@H]3CCCC[C@H]3[NH]2)[O]C1=O [oxaliplatin]
- AUC 3rd (HCT116 cells; HCT116 in Ex2-3, 3rd): 287.0
- IC50 (HCT116 cells; HCT116 in Ex2-3, 3rd, read-out: IC50 (μM) 3rd): 18.2 µM
- AUC Average (HCT116 cells; HCT116 in Ex2-3, average): 312.3
- IC50 (HCT116 cells; HCT116 in Ex2-3, average, read-out: IC50 (μM) Average): 37.3 µM
- AUC 1st (HCT116 cells; HCT116 in Ex2-4 (Ex2 + Wnt3a), 1st): 258.2
- IC50 (HCT116 cells; HCT116 in Ex2-4 (Ex2 + Wnt3a), 1st, read-out: IC50 (μM) 1st): 5.9 µM
- AUC 2nd (HCT116 cells; HCT116 in Ex2-4, 2nd): 304.7
- IC50 (HCT116 cells; HCT116 in Ex2-4, 2nd, read-out: IC50 (μM) 2nd): 38.8 µM
- AUC 3rd (HCT116 cells; HCT116 in Ex2-4, 3rd): 315.9
- IC50 (HCT116 cells; HCT116 in Ex2-4, 3rd, read-out: IC50 (μM) 3rd): 26.9 µM
- AUC Average (HCT116 cells; HCT116 in Ex2-4, average): 292.9
- IC50 (HCT116 cells; HCT116 in Ex2-4, average, read-out: IC50 (μM) Average): 23.8 µM
- AUC 1st (HCT116 cells; HCT116 in Ex2-5 (Ex2 + R-spondin 1 1 μg/ml), 1st): 317.5
- IC50 (HCT116 cells; HCT116 in Ex2-5 (Ex2 + R-spondin 1 1 μg/ml), 1st, read-out: IC50 (μM) 1st): 34 µM
- AUC 2nd (HCT116 cells; HCT116 in Ex2-5, 2nd): 322.7
- IC50 (HCT116 cells; HCT116 in Ex2-5, 2nd, read-out: IC50 (μM) 2nd): 43 µM
- AUC 3rd (HCT116 cells; HCT116 in Ex2-5, 3rd): 351.6
- IC50 (HCT116 cells; HCT116 in Ex2-5, 3rd, read-out: IC50 (μM) 3rd): 103 µM
- AUC Average (HCT116 cells; HCT116 in Ex2-5, average): 330.6
- IC50 (HCT116 cells; HCT116 in Ex2-5, average, read-out: IC50 (μM) Average): 60 µM
- AUC 1st (HCT116 cells; HCT116 in Ex2-6 (Ex2 + Noggin 100 ng/ml), 1st): 264.3
- IC50 (HCT116 cells; HCT116 in Ex2-6 (Ex2 + Noggin 100 ng/ml), 1st, read-out: IC50 (μM) 1st): 7.8 µM
- AUC 2nd (HCT116 cells; HCT116 in Ex2-6, 2nd): 309.4
- IC50 (HCT116 cells; HCT116 in Ex2-6, 2nd, read-out: IC50 (μM) 2nd): 41.4 µM
- AUC 3rd (HCT116 cells; HCT116 in Ex2-6, 3rd): 292.6
- IC50 (HCT116 cells; HCT116 in Ex2-6, 3rd, read-out: IC50 (μM) 3rd): 22.1 µM
- AUC Average (HCT116 cells; HCT116 in Ex2-6, average): 288.8
- IC50 (HCT116 cells; HCT116 in Ex2-6, average, read-out: IC50 (μM) Average): 23.8 µM
- AUC 2nd (HCT116 cells; HCT116 in Ex2, 2nd): 324.8
- IC50 (HCT116 cells; HCT116 in Ex2, 2nd, read-out: IC50 (μM) 2nd): 46.1 µM
- AUC 3rd (HCT116 cells; HCT116 in Ex2, 3rd): 331.7
- IC50 (HCT116 cells; HCT116 in Ex2, 3rd, read-out: IC50 (μM) 3rd): 40.5 µM
- AUC Average (HCT116 cells; HCT116 in Ex2, average): 325.4
- IC50 (HCT116 cells; HCT116 in Ex2, average, read-out: IC50 (μM) Average): 38.1 µM
- drug response, colorectal cancer cell line compared with cells under Ex1 organoid culture conditions (HCT116 cells; HCT-116, FIG. 2): increased resistance under the organoid culture conditions
- drug responsiveness, colorectal cancer cell line compared with organoids cultured in Ex1 and Ex2 (HCT116 cells; HCT-116, FIG. 25): oxaliplatin resistance decreased in Ex2
- cell viability (LoVo cells; LoVo organoids, log [oxaliplatin] values approaching 2, FIG. 22): ≥ 50%
- AUC values of Ex2 to Ex4 compared with Ex1 (LoVo cells; LoVo, FIG. 21): higher than that of Ex1
- cell viability (HCT15 cells; Ex2 and Ex4, log [oxaliplatin] value 2, FIG. 18): ≥ 50%
- AUC value, Ex1 to Ex4 compared (HCT15 cells; FIG. 17): decreased under the organoid culture conditions of Ex2
- AUC value, Ex2 compared with other organoid culture conditions (LS147T cells; FIG. 12): lower in the organoid culture conditions of Ex2
- AUC value, Ex3 and Ex4 compared with Ex1 (LS147T cells; FIG. 12): no difference in AUC values from Ex1
- IC50 value, Ex2 compared with Ex1 (LS147T cells; FIG. 13): higher in Ex2 than in Ex1
